Results published in PubChem BioAssay (NCI).
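Tested at 5 concentrations; 48 h exposure; 96-well plates; endpoints linearly interpolated, else capped at highest concentration. TGI denotes the concentration required for complete inhibition of growth.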 *1 amine or outer side, *2 acyl side, *3 side chain or, on linkers, in order; H or OH if unused. Where a SMILES comes first, the peptide text is derived from it. Bridges are numbered along the chain shown (N, C = ends). Roman numbers before positions name the chains, in order. [ ]: non-standard residue; d: D form. Actinocin(9to1) = Cc1c2oc3c(C)ccc(C(=O)[*:1])c3nc-2c(C(=O)[*:2])c(N)c1=O; X48 = O=C1CC(C(=O)[*:2])N([*:1])C1; NMeV = CN[CH](C(=O)O)C(C)C; Sar = CNCC(=O)O

Legend:
Assay in all cases: inhibition of tumour cell growth, NCI panel, 48 h
ACHN renal = system: ACHN renal
KM12 colon = system: KM12 colon
COLO 205 colon = system: COLO 205 colon
PC-3 prostate = system: PC-3 prostate
RPMI-8226 leukemia = system: RPMI-8226 leukemia
SK-MEL-28 melanoma = system: SK-MEL-28 melanoma
HCT-15 colon = system: HCT-15 colon
UO-31 renal = system: UO-31 renal
SNB-19 CNS = system: SNB-19 CNS
HOP-62 NSCLC = system: HOP-62 NSCLC
EKVX NSCLC = system: EKVX NSCLC
SK-MEL-5 melanoma = system: SK-MEL-5 melanoma
MDA-MB-231 breast = system: MDA-MB-231 breast
SK-MEL-2 melanoma = system: SK-MEL-2 melanoma
UACC-257 melanoma = system: UACC-257 melanoma
SW-620 colon = system: SW-620 colon
MCF7 breast = system: MCF7 breast
MDA-MB-435 = system: MDA-MB-435
NCI-H23 lung = system: NCI-H23 lung
NCI-H522 lung = system: NCI-H522 lung

SMILES | TGI (ACHN renal) [µM] | TGI (KM12 colon) [µM] | TGI (COLO 205 colon) [µM] | TGI (PC-3 prostate) [µM] | TGI (RPMI-8226 leukemia) [µM] | TGI (SK-MEL-28 melanoma) [µM] | TGI (HCT-15 colon) [µM] | TGI (UO-31 renal) [µM] | TGI (SNB-19 CNS) [µM] | TGI (HOP-62 NSCLC) [µM] | TGI (EKVX NSCLC) [µM] | TGI (SK-MEL-5 melanoma) [µM] | TGI (MDA-MB-231 breast) [µM] | TGI (SK-MEL-2 melanoma) [µM] | TGI (UACC-257 melanoma) [µM] | TGI (SW-620 colon) [µM] | TGI (MCF7 breast) [µM] | TGI (MDA-MB-435) [µM] | TGI (NCI-H23 lung) [µM] | TGI (NCI-H522 lung) [µM]
CCOP(=O)(OCC)C1CC(O)CN1OC(=O)C(C)(C)C (stereo not drawn) | > 100 | > 100 | > 100 | > 100 | > 100 | > 100 | > 100 | > 100 | > 100 | > 100 | > 100 | > 100 | > 100 | > 100 | > 100 | > 100 | > 100 | > 100 | > 100 | –
O=C(NC1CCC(=O)N1C(=O)OCc1ccccc1)OCc1ccccc1 (stereo not drawn) | > 100 | > 100 | > 100 | > 100 | > 100 | > 100 | > 100 | > 100 | > 100 | > 100 | – | > 100 | > 100 | > 100 | > 100 | > 100 | > 100 | > 100 | > 100 | > 100
COc1ccc(CNc2nc3cc(C(F)(F)F)ccc3nc2C(=O)O)cc1OC | > 100 | > 100 | 57.7 | > 100 | 94.6 | > 100 | > 100 | > 100 | > 100 | 66.1 | > 100 | 43.7 | > 100 | 51.8 | > 100 | > 100 | 95 | 80.2 | > 100 | –
Nc1ncnc2c1ncn2C1C=CC(CP(=O)(O)O)C1 (stereo not drawn) | > 100 | > 100 | > 100 | > 100 | > 100 | > 100 | > 100 | > 100 | > 100 | > 100 | > 100 | > 100 | > 100 | > 100 | > 100 | > 100 | > 100 | > 100 | > 100 | –
C=C(C)CC1=C(OCC)C(OC)(OCC)C1=O (stereo not drawn) | > 100 | > 100 | > 100 | > 100 | – | > 100 | > 100 | > 100 | > 100 | > 100 | > 100 | > 100 | > 100 | > 100 | > 100 | > 100 | > 100 | > 100 | > 100 | > 100
Cn1c(=O)c2c(no[n+]2[O-])n(C)c1=O | > 100 | > 100 | 43.9 | > 100 | > 100 | – | > 100 | 97.1 | 64.8 | 47.3 | 67.9 | > 100 | 48.1 | > 100 | 84.6 | 59.9 | > 100 | 38.3 | 47.9 | 30
Cc1cc2c(cc1Cl)SC(N/N=C(\N)c1ccc(Cl)cc1)=NS2(=O)=O | > 100 | > 100 | > 100 | > 100 | – | > 100 | > 100 | > 100 | > 100 | > 100 | > 100 | > 100 | > 100 | – | > 100 | > 100 | 64.7 | > 100 | > 100 | > 100
Cc1ccc(OCC2OC(C#N)C(Oc3ccc(C)cc3)C2Oc2ccc(C)cc2)cc1 (stereo not drawn) | – | > 100 | > 100 | > 100 | > 100 | > 100 | > 100 | > 100 | > 100 | > 100 | > 100 | > 100 | > 100 | > 100 | – | > 100 | > 100 | > 100 | > 100 | > 100
COc1ccc(-c2c(C#N)c(-c3ccc(C)cc3)n(NS(=O)(=O)c3ccccc3)c(=O)c2C#N)cc1 | > 100 | > 100 | > 100 | > 100 | 39.4 | > 100 | > 100 | – | > 100 | > 100 | > 100 | 44.8 | > 100 | > 100 | > 100 | > 100 | > 100 | > 100 | – | > 100
CCOC(=O)n1[nH]c(=O)n(-c2ccccc2)c1=O | > 100 | > 100 | > 100 | > 100 | > 100 | > 100 | > 100 | > 100 | > 100 | > 100 | > 100 | > 100 | > 100 | > 100 | > 100 | > 100 | > 100 | > 100 | > 100 | –
CC(C)OCC(O)COc1ccc2ccc(=O)oc2c1 (stereo not drawn) | > 100 | > 100 | > 100 | > 100 | > 100 | > 100 | > 100 | > 100 | > 100 | > 100 | > 100 | > 100 | > 100 | – | > 100 | > 100 | > 100 | > 100 | > 100 | > 100
Cc1c2oc3c(C)ccc(C(=O)NC4C(=O)NC(C(C)C)C(=O)N5CC(=O)CC5C(=O)N(C)CC(=O)N(C)C(C(C)C)C(=O)OC4C)c3nc-2c(C(=O)NC2C(=O)NC(C(C)C)C(=O)N3CC(=O)CC3C(=O)N(C)CC(=O)N(C)C(C(C)C)C(=O)OC2C)c(N)c1=O (stereo not drawn) (I: TV[X48][Sar][NMeV] / II: TV[X48][Sar][NMeV]; ester I:1-I:C, II:1-II:C; linker I:N-II:N via Actinocin(9to1); configuration not given here) | > 1 | – | > 1 | > 1 | > 1 | > 1 | > 1 | > 1 | > 1 | > 1 | > 1 | > 1 | > 1 | > 1 | > 1 | > 1 | > 1 | > 1 | > 1 | –
CCCCOC(=O)C1CN2C=CC=NC2=NC1(C(F)(F)F)C(F)(F)F (stereo not drawn) | > 100 | > 100 | > 100 | > 100 | > 100 | > 100 | > 100 | > 100 | > 100 | > 100 | > 100 | > 100 | > 100 | > 100 | > 100 | > 100 | > 100 | > 100 | > 100 | –
CC(NC(=O)C(N)Cc1ccc(O)cn1)C(=O)O (stereo not drawn) | > 100 | > 100 | > 100 | > 100 | > 100 | > 100 | > 100 | > 100 | > 100 | > 100 | > 100 | > 100 | > 100 | – | > 100 | > 100 | > 100 | > 100 | > 100 | > 100
N#CC1=C(S)N(C2OC(CO)C(O)C(O)C2O)C(c2ccccc2)=CC1c1ccccc1 (stereo not drawn) | > 100 | > 100 | > 100 | > 100 | > 100 | > 100 | > 100 | > 100 | > 100 | > 100 | – | 43.6 | > 100 | – | > 100 | > 100 | > 100 | > 100 | > 100 | > 100
CN(/N=C/c1cccs1)c1ccc(Cl)cc1[N+](=O)[O-] | > 100 | > 100 | – | > 100 | > 100 | > 100 | > 100 | > 100 | > 100 | > 100 | > 100 | > 100 | > 100 | – | > 100 | > 100 | > 100 | > 100 | > 100 | 69.5
O=C1CC(CC(O)C(O)C(O)CO)CC(=O)N1 (stereo not drawn) | > 100 | > 100 | > 100 | > 100 | > 100 | > 100 | > 100 | > 100 | – | > 100 | > 100 | > 100 | > 100 | – | > 100 | > 100 | > 100 | > 100 | > 100 | > 100
CCOC(=O)C(NC(=O)c1ccccc1)(Nc1ccc(S(=O)(=O)Nc2nc(C)cc(C)n2)cc1)C(F)(F)F (stereo not drawn) | > 100 | > 100 | > 100 | > 100 | > 100 | > 100 | > 100 | > 100 | > 100 | > 100 | > 100 | > 100 | > 100 | > 100 | > 100 | > 100 | > 100 | > 100 | > 100 | –
O=C(Cn1cc(-c2ccccc2)nn1)NC1CCCC1 | > 100 | > 100 | > 100 | > 100 | > 100 | > 100 | > 100 | – | > 100 | > 100 | > 100 | > 100 | > 100 | > 100 | > 100 | > 100 | > 100 | > 100 | > 100 | > 100
COC(=O)C(=O)c1c2ccccc2n2ccc3c4ccccc4[nH]c3c12 | > 10 | > 10 | > 10 | > 10 | > 10 | – | > 10 | > 10 | > 10 | > 10 | > 10 | > 10 | > 10 | > 10 | > 10 | > 10 | > 10 | > 10 | > 10 | > 10
COC(=O)C[C@@H]1C(C)(C)[C@@H]2O[C@@]34C[C@@H]2C(=O)[C@]1(C)[C@H]3CC[C@@]1(C)[C@H](c2ccoc2)OC(=O)C[C@]14O | > 100 | > 100 | > 100 | > 100 | > 100 | > 100 | > 100 | – | > 100 | > 100 | > 100 | > 100 | > 100 | > 100 | > 100 | > 100 | > 100 | > 100 | > 100 | > 100
Cc1cccc(N=Nc2c(C)nn(C(=O)CC(=O)Nc3ccccc3)c2C)c1 | > 100 | > 100 | > 100 | > 100 | > 100 | > 100 | > 100 | > 100 | > 100 | > 100 | > 100 | > 100 | > 100 | > 100 | – | > 100 | > 100 | > 100 | > 100 | > 100
Oc1c2cc(Br)cc1CCc1cc(Br)cc(c1O)CC2 | > 100 | 37.5 | 27.7 | 55.8 | > 100 | > 100 | 80.7 | 66.6 | > 100 | 65.7 | – | 33.3 | 41.4 | 52.9 | 55.6 | 70.5 | 46.2 | > 100 | > 100 | 45.8
CCCCCCCCCCCCn1c(=O)cc(NCCCC)c2cc3c(NCCCC)cc(=O)n(CCCCCCCCCCCC)c3nc21 | > 100 | > 100 | > 100 | > 100 | > 100 | > 100 | > 100 | > 100 | > 100 | > 100 | – | > 100 | > 100 | > 100 | > 100 | – | > 100 | > 100 | > 100 | > 100
